These are literature values, as cited in publication PMC8597174 (Clinical Pharmacology in Drug Development, 2021).

On to salmon calcitonin, for which the “Effect of dosing after meal intake on maximum concentration and AUC” value is “significant reduction in maximum concentration and AUC”.
